Values of other authors as cited in paper PMC9080292, “Correction: Rational design of a peptide capture agent for CXCL8 based on a model of the CXCL8:CXCR1 complex” (RSC Advances, 2018).
Square brackets hold non-standard residues; d marks the D form. Ends that are not written are not given here. Ahx = NCCCCCC(=O)O

Experiments:
[1] = synthesized peptide, result in words; ref Helmer et al., RSC Adv., 2015, 5, 25657–25668; cited from earlier work
CXCL8 = biological target: T1, CXCL8 (Homo sapiens, UniProt P10145); details: original publication; fluorescence anisotropy; now attributed to the peptide ending with glutamic acid; ref Helmer et al., RSC Adv., 2015, 5, 25657–25668; read-out: affinity (reported high affinity); cited from earlier work
T1 sequence (P10145 21-99): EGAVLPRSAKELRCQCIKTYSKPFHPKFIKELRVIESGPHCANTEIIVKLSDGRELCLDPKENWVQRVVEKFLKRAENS
Experimental: This was confirmed by high resolution mass spectrometry. […] We conclude that all experiments were performed with the peptid ...

Substance: AKWRMVLRI[Ahx]ADTLMRTE [IL8-RP-Loops, IL8 capture peptide; actually synthesized peptide with C-terminal glutamic acid]
- structure by CD-spectroscopy [1]: a helical structure

Substance: AKWRMVLRI–Ahx–ADTLMRTE (AKWRMVLRI[Ahx]ADTLMRTE) [IL8-RP-Loops, IL8 capture peptide; actually synthesized peptide with C-terminal glutamic acid]
- Kd (CXCL8): 500 ± 300 nM
